Reference: patent US9757383B2, “Cyclohexylamine derivatives having β2 adrenergic agonist and M3 muscarinic antagonist activities” (ALMIRALL, S.A., priority 2011, dated 2017)

Tests used:
[1] = molecular target: human adrenergic beta2 receptor (Homo sapiens (Human), UniProt P07550); assay: Human adrenergic β2 receptor binding assay (3H-CGP12177, Sf9 cell membranes); conditions: 0.6 nM 3H-CGP12177, membranes from Sf9 cells
Procedure: Test 1: Human Adrenergic β1 and β2 Receptor Binding Assays
The study of binding to human adrenergic beta1 and beta2 receptors was performed using commercial membranes prepared from Sf9 cells where they are overexpressed (Perkin Elmer). The membrane suspensions (16 μg/well for beta1 and 5 μg/well for beta2) in assay buffer (75 mM Tris/HCl with 12.5 mM MgCl2 and 2 mM EDTA pH=7.4) were incubated with 0.14 or 0.6 nM of 3H-CGP12177 (Amersham) for beta 1 and beta 2 receptors respectively in a final volume of 250 μl, in GFC Multiscreen 96 well plates (Millipore) previously treated with assay buffer containing 0.3% PEI (Sigma). Non specific binding was measured in the presence of 1 μM propanolol. Incubation was maintained for 60 minutes at room temperature and with gentle shaking. The binding reactions were terminated by filtration and washing with 2.5 volumes of Tris/HCl 50 mM pH=7.4. The affinity of each test compound to the receptor was determined by using ten different concentrations ran in duplicate. IC50s were calculated using Activity Base software from IDBS and the four parameters-log equation.

[2] = molecular target: human muscarinic M3 receptor (Homo sapiens (Human), UniProt P20309); assay: Human muscarinic M3 receptor binding assay ([3H]-NMS, CHO-K1 cell membranes); conditions: 1 nM [3H]-NMS, membranes from CHO-K1 cells
Procedure: Test 2: Human Muscarinic M1, M2, M3, M4 and M5 Receptors Binding Assays
The study of binding to human muscarinic M1, M2, M3, M4 and M5 receptors was performed using commercial membranes (Perkin Elmer) prepared from CHO-K1 cells. Radioligand binding experiments were conducted in 96 polypropylene well plates in a total volume of 200 μl. All reagents were dissolved in assay binding buffer (PBS with calcium and magnesium, SIGMA), except compounds that were dissolved in DMSO 100%. Non-specific binding (NSB) was measured in the presence of 1 μM atropine. [3H]-NMS was used as the radioligand at a concentration of 1 nM for M2, M3 and M5 and 0.3 nM for M1 and M4. […]
After an incubation period of two hours with gentle shaking, 150 μl of the reaction mix were transferred to 96 GF/C filter plates (Millipore), previously treated with wash buffer (Tris 50 mM; NaCl 100 mM; pH: 7.4), containing 0.05% PEI (Sigma) during one hour. […] After drying 30 min, 30 μl of OPTIPHASE Supermix were added to each well and radioactivity quantified using a Microbeta microplate scintillation counter.
The affinity of each test compound to the receptors was determined by using ten different concentrations ran in duplicate. IC50s were calculated using Activity Base software from IDBS and the four parameters-log equation.

Sequence of human muscarinic M3 receptor (P20309 whole entry): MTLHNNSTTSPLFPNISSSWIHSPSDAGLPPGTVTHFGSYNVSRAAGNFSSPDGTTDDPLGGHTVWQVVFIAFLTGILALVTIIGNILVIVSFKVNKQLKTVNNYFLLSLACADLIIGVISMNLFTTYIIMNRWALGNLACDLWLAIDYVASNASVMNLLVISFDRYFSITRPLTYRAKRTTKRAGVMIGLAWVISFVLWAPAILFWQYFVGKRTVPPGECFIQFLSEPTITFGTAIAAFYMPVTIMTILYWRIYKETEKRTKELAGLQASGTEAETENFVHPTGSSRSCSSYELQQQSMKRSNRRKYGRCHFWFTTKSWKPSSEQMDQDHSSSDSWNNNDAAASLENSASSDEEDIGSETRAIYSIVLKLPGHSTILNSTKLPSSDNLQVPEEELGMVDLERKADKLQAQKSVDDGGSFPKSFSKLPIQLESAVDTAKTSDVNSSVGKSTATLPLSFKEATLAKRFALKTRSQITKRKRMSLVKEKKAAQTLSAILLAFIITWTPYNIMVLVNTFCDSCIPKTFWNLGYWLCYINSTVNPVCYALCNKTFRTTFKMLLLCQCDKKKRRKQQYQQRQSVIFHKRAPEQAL

## trans-4-{[2-({2-[4-(2-{[(2R)-2-hydroxy-2-(8-hydroxy-2-oxo-1,2-dihydroquinolin-5-yl)ethyl]amino}propyl)phenoxy]acetyl}amino)ethyl]amino}cyclohexyl hydroxy(di-2-thienyl)acetate dihydrofluoride [Example 20]
[1]
  IC50: 3.1 nM
[2]
  IC50: 3.6 nM

## CN(CCCn1c(=O)[nH]c2cc(CNC[C@H](O)c3ccc(O)c4[nH]c(=O)ccc34)ccc21)[C@H]1CC[C@H](OC(=O)C(O)(c2cccs2)c2cccs2)CC1 (relative stereo) [Example 2, trans-4-[{3-[5-({[(2R)-2-hydroxy-2-(8-hydroxy-2-oxo-1,2-dihydroquinolin-5-yl)ethyl]amino}methyl)-2-oxo-2,3-dihydro-H-benzimidazol-1-yl]propyl}(methyl)amino]cyclohexyl hydroxy(di-2-thienyl)acetate dihydrofluoride]
[1]
  IC50: 120 nM
[2]
  IC50: 0.4 nM
